# Experimental data taken from patent US7851410B2, “Herbicidal composition” (FMC Corporation, priority 2006, dated 2010).
# Experiments:
# Assay type in all cases: in vivo
# Spurge = assay: Pre-emergent herbicidal evaluation on Spurge (field plots, granular fertilizer compositions)
# Procedure: Test compositions were prepared of i) a granular fertilizer and 2,4-dinitro-N^3,N^3-dipropyl-6-(trifluoromethyl)-1,3-benzenediamine, and ii) a granular fertilizer and N-[2,4-dichloro-5-[4-(difluoromethyl)-4,5-dihydro-3-methyl-5-oxo-1H-1,2,4-triazol-1-yl]phenyl]methanesulfonamide. The test compositions were prepared to provide the desired application rates of 2,4-dinitro-N^3,N^3-dipropyl-6-(trifluoromethyl)-1,3-benzenediamine and N-[2,4-dichloro-5-[4-(difluoromethyl)-4,5-dihydro-3-methyl-5-oxo-1H-1,2,4-triazol-1-yl]phenyl]methanesulfonamide. In addition, test compositions were prepared containing mixtures of 2,4-dinitro-N^3,N^3-dipropyl-6-(trifluoromethyl)-1,3-benzenediamine and N-[2,4-dichloro-5-[4-(difluoromethyl)-4,5-dihydro-3-methyl-5-oxo-1H-1,2,4-triazol-1-yl]phenyl]methanesulfonamide with granular fertilizer that provided the specified rates of the two herbicides.
# The experimental design used randomized plots with one pre-emergent treatment either the day of planting or the day after planting and three to four replications per test trial. The size of each experimental plot was 6 feet by 30 feet.
# Percent control of the weed (Spurge) was evaluated and averaged in each experimental plot at 70 days after treatment (DAT) of each test rate.
# (§1) The results, shown as an average of the replications, were compared with results observed in untreated control plots in the same trials.
# Goose Grass = assay: Pre-emergent herbicidal evaluation on Goose Grass (field plots, spray)
# Procedure: (§2) Test compositions were prepared by dilution of a 65% water-soluble granule (65 WG) formulation of 2,4-dinitro-N^3,N^3-dipropyl-6-(trifluoromethyl)-1,3-benzenediamine in a spray tank that provided the appropriate application rate of 2,4-dinitro-N^3,N^3-dipropyl-6-(trifluoromethyl)-1,3-benzenediamine. Test compositions were also prepared by dilution of a 80% wettable powder (80 WP) formulation of N-[2,4-dichloro-5-[4-(difluoromethyl)-4,5-dihydro-3-methyl-5-oxo-1H-1,2,4-triazol-1-yl]phenyl]methanesulfonamide in a spray tank that provided the appropriate application rate of N-[2,4-dichloro-5-[4-(difluoromethyl)-4,5-dihydro-3-methyl-5-oxo-1H-1,2,4-triazol-1-yl]phenyl]methanesulfonamide. In addition, test compositions were prepared containing mixtures of a 65% water-soluble granule (65 WG) formulation of 2,4-dinitro-N^3,N^3-dipropyl-6-(trifluoromethyl)-1,3-benzenediamine and a 80% wettable powder (80 WP) formulation of N-[2,4-dichloro-5-[4-(difluoromethyl)-4,5-dihydro-3-methyl-5-oxo-1H-1,2,4-triazol-1-yl]phenyl]methanesulfonamide with water that provided the specified rates of the two herbicides.
# (§3) The application of each test composition was performed with pressurized back-pack sprayers, calibrated to spray between 10 and 15 gallons per acre.
# (§4) The experimental design used randomized plots with one pre-emergent treatment either the day of planting or the day after planting and four to eight replications per test trial. The size of each experimental plot was 6 feet by 30 feet.
# Percent control of the weed (Goose Grass) was evaluated and averaged in each experimental plot at 14 days after treatment (DAT) of each test rate.
# as §1
# Johnson Grass = assay: Pre-emergent herbicidal evaluation on Johnson Grass (field plots, spray)
# Procedure: as §2, §3, §4
# Percent control of the weed (Johnson Grass) was evaluated and averaged in each experimental plot at 14 days after treatment (DAT) of each test rate.
# as §1
# Barnyard Grass = assay: Pre-emergent herbicidal evaluation on Barnyard Grass (field plots, spray)
# Procedure: as §2, §3, §4
# Percent control of the weed (Barnyard Grass) was evaluated and averaged in each experimental plot at 14 days after treatment (DAT) of each test rate.
# as §1
# Green Foxtail = assay: Pre-emergent herbicidal evaluation on Green Foxtail (field plots, spray)
# Procedure: as §2, §3, §4
# Percent control of the weed (Green Foxtail) was evaluated and averaged in each experimental plot at 14 days after treatment (DAT) of each test rate.
# as §1
# Annual Blue Grass = assay: Pre-emergent herbicidal evaluation on Annual Blue Grass (field plots, spray)
# Procedure: as §2, §3, §4
# Percent control of the weed (Annual Blue Grass) was evaluated and averaged in each experimental plot at 14 days after treatment (DAT) of each test rate.
# as §1
smiles,measurement,setting,value
"CCCN(CCC)c1c([N+](=O)[O-])cc(C(F)(F)F)c(N)c1[N+](=O)[O-] [B, 2,4-dinitro-N^3,N^3-dipropyl-6-(trifluoromethyl)-1,3-benzenediamine]",Control @ 70 DAT,Spurge; 0.50 lb AI/Acre,42%
same,Control @ 70 DAT,Spurge; 0.75 lb AI/Acre,70%
same,Control @ 70 DAT,Spurge; 1.00 lb AI/Acre,60%
same,Control @ 14 DAT,Goose Grass; 0.12 lb AI/Acre,76%
same,Control @ 14 DAT,Goose Grass; 0.25 lb AI/Acre,99%
same,Control @ 14 DAT,Goose Grass; 0.50 lb AI/Acre,100%
same,Control @ 14 DAT,Johnson Grass; 0.12 lb AI/Acre,42%
same,Control @ 14 DAT,Johnson Grass; 0.25 lb AI/Acre,48%
same,Control @ 14 DAT,Johnson Grass; 0.50 lb AI/Acre,77%
same,Control @ 14 DAT,Barnyard Grass; 0.12 lb AI/Acre,63%
same,Control @ 14 DAT,Barnyard Grass; 0.25 lb AI/Acre,69%
same,Control @ 14 DAT,Barnyard Grass; 0.50 lb AI/Acre,86%
same,Control @ 14 DAT,Green Foxtail; 0.12 lb AI/Acre,87%
same,Control @ 14 DAT,Green Foxtail; 0.25 lb AI/Acre,91%
same,Control @ 14 DAT,Green Foxtail; 0.50 lb AI/Acre,95%
same,Control @ 14 DAT,Annual Blue Grass; 0.12 lb AI/Acre,45%
same,Control @ 14 DAT,Annual Blue Grass; 0.25 lb AI/Acre,38%
same,Control @ 14 DAT,Annual Blue Grass; 0.50 lb AI/Acre,58%
"Cc1nn(-c2cc(NS(C)(=O)=O)c(Cl)cc2Cl)c(=O)n1C(F)F [A, N-[2,4-dichloro-5-[4-(difluoromethyl)-4,5-dihydro-3-methyl-5-oxo-1H-1,2,4-triazol-1-yl]phenyl]methanesulfonamide]",Control @ 70 DAT,Spurge; 0.125 lb AI/Acre,0%
same,Control @ 70 DAT,Spurge; 0.250 lb AI/Acre,6%
same,Control @ 70 DAT,Spurge; 0.375 lb AI/Acre,6%
same,Control @ 14 DAT,Goose Grass; 0.06 lb AI/Acre,49%
same,Control @ 14 DAT,Goose Grass; 0.12 lb AI/Acre,69%
same,Control @ 14 DAT,Goose Grass; 0.19 lb AI/Acre,77%
same,Control @ 14 DAT,Goose Grass; 0.25 lb AI/Acre,79%
same,Control @ 14 DAT,Johnson Grass; 0.06 lb AI/Acre,42%
same,Control @ 14 DAT,Johnson Grass; 0.12 lb AI/Acre,67%
same,Control @ 14 DAT,Johnson Grass; 0.19 lb AI/Acre,65%
same,Control @ 14 DAT,Johnson Grass; 0.25 lb AI/Acre,70%
same,Control @ 14 DAT,Barnyard Grass; 0.06 lb AI/Acre,55%
same,Control @ 14 DAT,Barnyard Grass; 0.12 lb AI/Acre,80%
same,Control @ 14 DAT,Barnyard Grass; 0.19 lb AI/Acre,88%
same,Control @ 14 DAT,Barnyard Grass; 0.25 lb AI/Acre,93%
same,Control @ 14 DAT,Green Foxtail; 0.06 lb AI/Acre,62%
same,Control @ 14 DAT,Green Foxtail; 0.12 lb AI/Acre,76%
same,Control @ 14 DAT,Green Foxtail; 0.19 lb AI/Acre,93%
same,Control @ 14 DAT,Green Foxtail; 0.25 lb AI/Acre,97%
same,Control @ 14 DAT,Annual Blue Grass; 0.06 lb AI/Acre,37%
same,Control @ 14 DAT,Annual Blue Grass; 0.12 lb AI/Acre,47%
same,Control @ 14 DAT,Annual Blue Grass; 0.19 lb AI/Acre,62%
same,Control @ 14 DAT,Annual Blue Grass; 0.25 lb AI/Acre,60%
